Laboratory results as given in ChEMBL document CHEMBL1144073, “A cytotoxic triterpene saponin from the root bark of Aralia dasyphylla” (J Nat Prod, 1999).
≈ marks a conversion by molar mass, not a printed value.

Tests used:
KB = assay: Cytotoxicity against human KB cells; format: functional, cell-based
HeLa = assay: Cytotoxicity against human HeLa S3 cells; format: functional, cell-based

| SMILES | IC50 (KB) | IC50 (HeLa) |
| --- | --- | --- |
| Nc1ccn([C@@H]2O[C@H](CO)[C@@H](O)[C@@H]2O)c(=O)n1 [CYTARABINE] | 0.81 µg/mL (≈ 3.33 µM) | 0.23 µg/mL (≈ 0.946 µM) |
| O=c1[nH]cc(F)c(=O)[nH]1 [FLUOROURACIL] | 0.93 µg/mL (≈ 7.15 µM) | 0.44 µg/mL (≈ 3.38 µM) |
| CC1(C)CC[C@]2(C(=O)O[C@@H]3O[C@H](CO)[C@@H](O)[C@H](O)[C@H]3O)CC[C@]3(C)C(=CC[C@@H]4[C@@]5(C)CC[C@H](O[C@@H]6O[C@H](C(=O)O)[C@@H](O)[C@H](O[C@@H]7O[C@H](CO)[C@@H](O)[C@H](O)[C@H]7O)[C@H]6O[C@@H]6O[C@H](CO)[C@H](O)[C@H](O)[C@H]6O)C(C)(C)C5CC[C@]43C)[C@H]2C1 (stereo partly specified) | 1.2 µg/mL (≈ 1.07 µM) | 0.02 µg/mL (≈ 0.0179 µM) |
